Experimental data from PubChem BioAssay AID1963980 (Molecular Pharmacology Branch, DTP, NCI, 2024).

Test system: 475296-252-R-J1-PDC spheroid viability
Test: Anticancer human tumor 475296-252-R-J1-PDC patient-derived rectal carcinoma cell line growth inhibition [PI3K]
Settings: spheroids with HUVEC and MSC; for IC50: curve of first compound; for viability, T/C: stronger effect = lower value; active = viability on the fitted dose curve at most 10% of control; inactive = the rest
How it was run: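 Targeted small molecules plus PI3K inhibitors, half-log dose series from Cmax (default top 10 microM), were applied to heterotypic spheroids of cancer cells with HUVEC and MSCs. Viability indicated growth inhibition.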

[1] = second compound 0.0316 µM, first compound 0.000316 µM
[2] = second compound 0.0316 µM, first compound 0.001 µM
[3] = second compound 0.0316 µM, first compound 0.00316 µM
[4] = second compound 0.0316 µM, first compound 0.01 µM
[5] = second compound 0.0316 µM, first compound 0.0316 µM
[6] = second compound 0.0316 µM, first compound 0.1 µM
[7] = second compound 0.1 µM, first compound 0.000316 µM
[8] = second compound 0.1 µM, first compound 0.001 µM
[9] = second compound 0.1 µM, first compound 0.00316 µM
[10] = second compound 0.1 µM, first compound 0.01 µM
[11] = second compound 0.1 µM, first compound 0.0316 µM
[12] = second compound 0.1 µM, first compound 0.1 µM
[13] = second compound 0.316 µM, first compound 0.000316 µM
[14] = second compound 0.316 µM, first compound 0.001 µM
[15] = second compound 0.316 µM, first compound 0.00316 µM
[16] = second compound 0.316 µM, first compound 0.01 µM
[17] = second compound 0.316 µM, first compound 0.0316 µM
[18] = second compound 0.316 µM, first compound 0.1 µM
[19] = second compound 1 µM, first compound 0.000316 µM
[20] = second compound 1 µM, first compound 0.001 µM
[21] = second compound 1 µM, first compound 0.00316 µM
[22] = second compound 1 µM, first compound 0.01 µM
[23] = second compound 1 µM, first compound 0.0316 µM
[24] = second compound 1 µM, first compound 0.1 µM
[25] = second compound 3.16 µM, first compound 0.000316 µM
[26] = second compound 3.16 µM, first compound 0.001 µM
[27] = second compound 3.16 µM, first compound 0.00316 µM
[28] = second compound 3.16 µM, first compound 0.01 µM
[29] = second compound 3.16 µM, first compound 0.0316 µM
[30] = second compound 3.16 µM, first compound 0.1 µM
[31] = second compound 10 µM, first compound 0.000316 µM
[32] = second compound 10 µM, first compound 0.001 µM
[33] = second compound 10 µM, first compound 0.00316 µM
[34] = second compound 10 µM, first compound 0.01 µM
[35] = second compound 10 µM, first compound 0.0316 µM
[36] = second compound 10 µM, first compound 0.1 µM
[37] = second compound 0.0316 µM, first compound 0.316 µM
[38] = second compound 0.0316 µM, first compound 1 µM
[39] = second compound 0.0316 µM, first compound 3.16 µM
[40] = second compound 0.0316 µM, first compound 10 µM
[41] = second compound 0.1 µM, first compound 0.316 µM
[42] = second compound 0.1 µM, first compound 1 µM
[43] = second compound 0.1 µM, first compound 3.16 µM
[44] = second compound 0.1 µM, first compound 10 µM
[45] = second compound 0.316 µM, first compound 0.316 µM
[46] = second compound 0.316 µM, first compound 1 µM
[47] = second compound 0.316 µM, first compound 3.16 µM
[48] = second compound 0.316 µM, first compound 10 µM
[49] = second compound 1 µM, first compound 0.316 µM
[50] = second compound 1 µM, first compound 1 µM
[51] = second compound 1 µM, first compound 3.16 µM
[52] = second compound 1 µM, first compound 10 µM
[53] = second compound 3.16 µM, first compound 0.316 µM
[54] = second compound 3.16 µM, first compound 1 µM
[55] = second compound 3.16 µM, first compound 3.16 µM
[56] = second compound 3.16 µM, first compound 10 µM
[57] = second compound 10 µM, first compound 0.316 µM
[58] = second compound 10 µM, first compound 1 µM
[59] = second compound 10 µM, first compound 3.16 µM
[60] = second compound 10 µM, first compound 10 µM
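Also: spheroids exposed to agents for seven days before readout.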

CC(=O)c1c(C)c2cnc(Nc3ccc(N4CCNCC4)cn3)nc2n(C2CCCC2)c1=O + CC(Nc1ncnc2nc[nH]c12)c1cc2cccc(Cl)c2c(=O)n1-c1ccccc1
> 0.1 µM: IC50 (second compound 0.0316 µM) | IC50 (second compound 0.1 µM) | IC50 (second compound 0.316 µM) | IC50 (second compound 1 µM) | IC50 (second compound 3.16 µM) | IC50 (second compound 10 µM)
inactive: viability, T/C [1] 91.8% | viability, T/C [2] 91.4% | viability, T/C [3] 87.8% | viability, T/C [4] 94.2% | viability, T/C [5] 96% | viability, T/C [6] 102% | viability, T/C [7] 97.4% | viability, T/C [8] 106% | viability, T/C [9] 94.4% | viability, T/C [10] 85.8% | viability, T/C [11] 105% | viability, T/C [12] 112% | viability, T/C [13] 105% | viability, T/C [14] 89.7% | viability, T/C [15] 104% | viability, T/C [16] 97.2% | viability, T/C [17] 104% | viability, T/C [18] 101% | viability, T/C [19] 99.9% | viability, T/C [20] 109% | viability, T/C [21] 84.1% | viability, T/C [22] 95.3% | viability, T/C [23] 107% | viability, T/C [24] 112% | viability, T/C [25] 99.2% | viability, T/C [26] 86.5% | viability, T/C [27] 100% | viability, T/C [28] 97.7% | viability, T/C [29] 105% | viability, T/C [30] 104% | viability, T/C [31] 91.4% | viability, T/C [32] 94.8% | viability, T/C [33] 89.9% | viability, T/C [34] 97.4% | viability, T/C [35] 99.8% | viability, T/C [36] 86.6%

CC(C)n1nc(-c2ccc3oc(N)nc3c2)c2c(N)ncnc21 + CC(Nc1ncnc2nc[nH]c12)c1cc2cccc(Cl)c2c(=O)n1-c1ccccc1
inactive: viability, T/C [1] 87.4% | viability, T/C [2] 101% | viability, T/C [3] 96% | viability, T/C [4] 76.7% | viability, T/C [5] 66.4% | viability, T/C [6] 59.6% | viability, T/C [7] 97.8% | viability, T/C [8] 88.2% | viability, T/C [9] 78% | viability, T/C [10] 72.9% | viability, T/C [11] 77.4% | viability, T/C [12] 62.3% | viability, T/C [13] 101% | viability, T/C [14] 110% | viability, T/C [15] 105% | viability, T/C [16] 92.7% | viability, T/C [17] 65.9% | viability, T/C [18] 56.4% | viability, T/C [19] 111% | viability, T/C [20] 97.8% | viability, T/C [21] 84.9% | viability, T/C [22] 88.5% | viability, T/C [23] 63% | viability, T/C [24] 59.2% | viability, T/C [25] 87.8% | viability, T/C [26] 101% | viability, T/C [27] 94.6% | viability, T/C [28] 75.2% | viability, T/C [29] 66.8% | viability, T/C [30] 61.2% | viability, T/C [31] 91.3% | viability, T/C [32] 92% | viability, T/C [33] 88.9% | viability, T/C [34] 80.3% | viability, T/C [35] 68.9% | viability, T/C [36] 63.6%
> 0.1 µM: IC50 (second compound 0.0316 µM) | IC50 (second compound 0.1 µM) | IC50 (second compound 0.316 µM) | IC50 (second compound 1 µM) | IC50 (second compound 3.16 µM) | IC50 (second compound 10 µM)

CC1(C)CCC(CN2CCN(c3ccc(C(=O)NS(=O)(=O)c4ccc(NCC5CCOCC5)c([N+](=O)[O-])c4)c(Oc4cnc5[nH]ccc5c4)c3)CC2)=C(c2ccc(Cl)cc2)C1 + CC(Nc1ncnc2nc[nH]c12)c1cc2cccc(Cl)c2c(=O)n1-c1ccccc1
> 10 µM: IC50 (second compound 0.0316 µM) | IC50 (second compound 0.1 µM) | IC50 (second compound 0.316 µM) | IC50 (second compound 1 µM) | IC50 (second compound 3.16 µM) | IC50 (second compound 10 µM)
inactive: viability, T/C [5] 102% | viability, T/C [6] 99.1% | viability, T/C [37] 91.2% | viability, T/C [38] 104% | viability, T/C [39] 107% | viability, T/C [40] 84.2% | viability, T/C [11] 107% | viability, T/C [12] 93.8% | viability, T/C [41] 98.8% | viability, T/C [42] 99.7% | viability, T/C [43] 106% | viability, T/C [44] 99% | viability, T/C [17] 120% | viability, T/C [18] 95.4% | viability, T/C [45] 97.9% | viability, T/C [46] 95% | viability, T/C [47] 86.4% | viability, T/C [48] 94.3% | viability, T/C [23] 86.6% | viability, T/C [24] 104% | viability, T/C [49] 98.9% | viability, T/C [50] 101% | viability, T/C [51] 91.8% | viability, T/C [52] 91.7% | viability, T/C [29] 93.2% | viability, T/C [30] 99.4% | viability, T/C [53] 95.1% | viability, T/C [54] 87.6% | viability, T/C [55] 96.9% | viability, T/C [56] 95.6% | viability, T/C [35] 78.5% | viability, T/C [36] 91.7% | viability, T/C [57] 92% | viability, T/C [58] 88.9% | viability, T/C [59] 90.6% | viability, T/C [60] 81.3%

CCCS(=O)(=O)Nc1ccc(F)c(C(=O)c2c[nH]c3ncc(-c4ccc(Cl)cc4)cc23)c1F + CC(Nc1ncnc2nc[nH]c12)c1cc2cccc(Cl)c2c(=O)n1-c1ccccc1
inactive: viability, T/C [5] 96.5% | viability, T/C [6] 112% | viability, T/C [37] 103% | viability, T/C [38] 94.8% | viability, T/C [39] 85.1% | viability, T/C [40] 110% | viability, T/C [11] 110% | viability, T/C [12] 110% | viability, T/C [41] 97.3% | viability, T/C [42] 90.6% | viability, T/C [43] 107% | viability, T/C [44] 100% | viability, T/C [17] 94.6% | viability, T/C [18] 88.6% | viability, T/C [45] 99.4% | viability, T/C [46] 101% | viability, T/C [47] 90.9% | viability, T/C [48] 105% | viability, T/C [23] 89.5% | viability, T/C [24] 104% | viability, T/C [49] 96.2% | viability, T/C [50] 90.6% | viability, T/C [51] 96.7% | viability, T/C [52] 96.6% | viability, T/C [29] 97% | viability, T/C [30] 104% | viability, T/C [53] 90% | viability, T/C [54] 100% | viability, T/C [55] 87.6% | viability, T/C [56] 87.4% | viability, T/C [35] 101% | viability, T/C [36] 80.1% | viability, T/C [57] 79.8% | viability, T/C [58] 97% | viability, T/C [59] 90.3% | viability, T/C [60] 92.3%
> 10 µM: IC50 (second compound 0.0316 µM) | IC50 (second compound 0.1 µM) | IC50 (second compound 0.316 µM) | IC50 (second compound 1 µM) | IC50 (second compound 3.16 µM) | IC50 (second compound 10 µM)
